Source: US11111245B2, “Derivatives of N-cycloalkyl/heterocycloalkyl-4-(imidazo[1,2-a]pyridine)pyrimidin-2-amine as therapeutic agents” (Aucentra Therapeutics Pty Ltd, priority 2017, dated 2021)

Experiments:
CDK4/D1 = CDK4/D1 (Homo sapiens, UniProt P11802); test: ADP Glo Kinase assay CDK4/D1; assay type: biochemical; conditions: CDK4D1; for remaining activity at 10 µM: compound at 10 μM, read-out: residual activity (%) at 10 μM CDK4D1
In short: (§1)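 Other CDKs and further kinases were profiled externally by radiometric assay. In-house ADP Glo assays covered CDK4/D1 and CDK6/D3 (RB-CTF substrate, pH 7.5 Tris buffer with MgCl2, DTT, BSA) and CDK9/T1 (RBER-IRStide substrate), 40 min at 37° C.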

CDK6/D3 = CDK6/D3 (Homo sapiens, UniProt Q00534); test: ADP Glo Kinase assay CDK6/D3; assay type: biochemical; conditions: CDK6D3; compound at 10 μM; read-out: residual activity (%) at 10 μM CDK6D3
CDK6/D3, sequence (Q00534 whole entry): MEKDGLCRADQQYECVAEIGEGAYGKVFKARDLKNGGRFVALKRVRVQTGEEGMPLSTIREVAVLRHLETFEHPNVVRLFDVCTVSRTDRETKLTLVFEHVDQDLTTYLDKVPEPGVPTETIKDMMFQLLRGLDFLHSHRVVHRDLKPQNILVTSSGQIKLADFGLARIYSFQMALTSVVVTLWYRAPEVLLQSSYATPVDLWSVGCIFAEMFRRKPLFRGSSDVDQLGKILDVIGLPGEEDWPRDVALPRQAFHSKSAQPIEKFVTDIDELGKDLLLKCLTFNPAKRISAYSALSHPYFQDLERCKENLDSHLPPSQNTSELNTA
CDK6/D3, sequence (P30281 whole entry partner): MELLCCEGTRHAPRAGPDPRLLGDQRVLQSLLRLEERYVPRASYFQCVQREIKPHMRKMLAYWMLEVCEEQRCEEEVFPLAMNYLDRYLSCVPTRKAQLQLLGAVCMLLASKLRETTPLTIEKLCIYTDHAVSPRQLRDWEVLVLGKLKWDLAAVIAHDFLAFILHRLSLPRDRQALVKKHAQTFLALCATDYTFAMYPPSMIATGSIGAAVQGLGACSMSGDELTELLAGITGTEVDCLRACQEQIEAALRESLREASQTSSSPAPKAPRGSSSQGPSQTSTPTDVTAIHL
In short: as §1

CDK9/T1 = CDK9/T1 (Homo sapiens, UniProt P50750); test: ADP Glo Kinase assay CDK9/T1; assay type: biochemical; conditions: CDK9T1; read-out: CDK inhibition, Ki (μM) CDK9T1
CDK9/T1, sequence (P50750 whole entry): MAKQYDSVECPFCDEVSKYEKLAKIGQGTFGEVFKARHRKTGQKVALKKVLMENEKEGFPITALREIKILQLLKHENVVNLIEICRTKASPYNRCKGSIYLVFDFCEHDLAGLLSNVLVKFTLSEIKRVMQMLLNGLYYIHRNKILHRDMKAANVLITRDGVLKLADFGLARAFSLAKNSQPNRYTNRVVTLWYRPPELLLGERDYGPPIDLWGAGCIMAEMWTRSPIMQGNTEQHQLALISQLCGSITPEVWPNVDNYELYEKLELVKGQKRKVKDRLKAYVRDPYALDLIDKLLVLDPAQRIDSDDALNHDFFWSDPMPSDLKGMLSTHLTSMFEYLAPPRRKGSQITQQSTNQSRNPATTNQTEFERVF
CDK9/T1, sequence (O60563 whole entry partner): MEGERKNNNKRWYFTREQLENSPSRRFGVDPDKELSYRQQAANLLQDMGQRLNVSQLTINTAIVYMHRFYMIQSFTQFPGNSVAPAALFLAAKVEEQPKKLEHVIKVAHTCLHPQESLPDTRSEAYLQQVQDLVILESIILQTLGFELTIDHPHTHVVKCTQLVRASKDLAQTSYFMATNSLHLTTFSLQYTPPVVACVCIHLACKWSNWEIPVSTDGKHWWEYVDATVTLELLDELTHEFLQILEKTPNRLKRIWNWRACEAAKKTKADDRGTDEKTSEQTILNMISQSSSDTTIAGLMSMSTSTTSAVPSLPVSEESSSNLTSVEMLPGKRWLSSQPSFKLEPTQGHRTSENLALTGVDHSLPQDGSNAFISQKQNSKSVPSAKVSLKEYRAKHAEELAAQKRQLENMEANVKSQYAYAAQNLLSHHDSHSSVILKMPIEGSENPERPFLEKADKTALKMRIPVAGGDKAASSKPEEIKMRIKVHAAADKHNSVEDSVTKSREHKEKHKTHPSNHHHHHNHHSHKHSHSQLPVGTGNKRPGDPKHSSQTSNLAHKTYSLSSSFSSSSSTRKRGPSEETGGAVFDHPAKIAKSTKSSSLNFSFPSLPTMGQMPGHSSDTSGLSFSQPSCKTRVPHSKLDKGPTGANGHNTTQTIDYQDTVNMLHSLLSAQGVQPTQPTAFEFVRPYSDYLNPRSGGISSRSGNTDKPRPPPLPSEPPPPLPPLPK
In short: as §1

CDKs and other kinases [1] = molecular target: T1, CDKs and other kinases (Homo sapiens, UniProt P06493); test: Radiometric kinase assay (Eurofins Pharma Discovery or Reaction Biology Corporation Kinase Profiler); assay type: biochemical; conditions: CDK1B; for Ki: read-out: CDK inhibition, Ki (μM) CDK1B; for remaining activity at 10 µM: compound at 10 μM, read-out: residual activity (%) at 10 μM CDK1B
T1 construct: other: CDK1B; residual activity (%) at 10 μM CDK1B; compound at 10 μM
T1 sequence (P06493 whole entry): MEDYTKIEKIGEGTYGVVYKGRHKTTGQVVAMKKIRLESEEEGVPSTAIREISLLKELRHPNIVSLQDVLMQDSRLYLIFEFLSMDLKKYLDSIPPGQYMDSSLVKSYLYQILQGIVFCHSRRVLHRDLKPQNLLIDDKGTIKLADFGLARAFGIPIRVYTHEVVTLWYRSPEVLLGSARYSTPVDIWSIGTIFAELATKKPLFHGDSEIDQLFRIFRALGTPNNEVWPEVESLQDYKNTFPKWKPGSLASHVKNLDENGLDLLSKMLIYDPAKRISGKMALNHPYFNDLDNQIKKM
In short: as §1

CDKs and other kinases [2] = molecular target: T2, CDKs and other kinases (Homo sapiens, UniProt P24941); test: as above; assay type: biochemical; conditions: CDK2A; for Ki: read-out: CDK inhibition, Ki (μM) CDK2A; for remaining activity at 10 µM: compound at 10 μM, read-out: residual activity (%) at 10 μM CDK2A
T2 construct: other: CDK2A; residual activity (%) at 10 μM CDK2A; compound at 10 μM
In short: as §1

CDKs and other kinases [3] = molecular target: T3, CDKs and other kinases (Homo sapiens, UniProt P50613); test: as above; assay type: biochemical; conditions: CDK7H; for Ki: read-out: CDK inhibition, Ki (μM) CDK7H; for remaining activity at 10 µM: compound at 10 μM, read-out: residual activity (%) at 10 μM CDK7H
T3 construct: other: CDK7H; residual activity (%) at 10 μM CDK7H; compound at 10 μM
T3 sequence (P50613 whole entry): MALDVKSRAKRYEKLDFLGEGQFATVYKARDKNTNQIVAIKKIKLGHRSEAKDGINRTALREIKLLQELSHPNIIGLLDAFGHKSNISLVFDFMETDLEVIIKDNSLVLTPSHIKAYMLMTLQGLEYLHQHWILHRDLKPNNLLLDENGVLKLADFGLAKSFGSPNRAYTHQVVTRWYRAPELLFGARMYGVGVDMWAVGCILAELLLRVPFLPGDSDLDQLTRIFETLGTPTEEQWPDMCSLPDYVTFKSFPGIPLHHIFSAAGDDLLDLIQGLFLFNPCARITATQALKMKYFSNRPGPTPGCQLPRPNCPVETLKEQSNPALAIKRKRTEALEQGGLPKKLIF
In short: as §1

leukemia cell lines = test: Resazurin cell viability assay on leukemia cell lines (72 h growth inhibition, GI50); assay type: cell-based; conditions: Homo sapiens, MV4-11 cells
In short: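 Standard published viability protocols apply here, MTT-based for solid tumour cells and resazurin-based for leukaemia cells, with 50% growth inhibition concentrations derived through non-linear regression.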

CDK4/D1, sequence (P11802 whole entry): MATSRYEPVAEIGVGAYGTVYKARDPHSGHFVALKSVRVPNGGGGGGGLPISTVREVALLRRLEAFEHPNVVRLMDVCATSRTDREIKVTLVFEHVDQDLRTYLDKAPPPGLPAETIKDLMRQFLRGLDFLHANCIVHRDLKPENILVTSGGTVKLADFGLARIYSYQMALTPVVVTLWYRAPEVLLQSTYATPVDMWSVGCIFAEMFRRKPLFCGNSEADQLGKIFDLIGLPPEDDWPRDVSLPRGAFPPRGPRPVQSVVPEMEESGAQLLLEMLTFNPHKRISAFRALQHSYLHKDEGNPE
CDK4/D1, sequence (P24385 whole entry partner): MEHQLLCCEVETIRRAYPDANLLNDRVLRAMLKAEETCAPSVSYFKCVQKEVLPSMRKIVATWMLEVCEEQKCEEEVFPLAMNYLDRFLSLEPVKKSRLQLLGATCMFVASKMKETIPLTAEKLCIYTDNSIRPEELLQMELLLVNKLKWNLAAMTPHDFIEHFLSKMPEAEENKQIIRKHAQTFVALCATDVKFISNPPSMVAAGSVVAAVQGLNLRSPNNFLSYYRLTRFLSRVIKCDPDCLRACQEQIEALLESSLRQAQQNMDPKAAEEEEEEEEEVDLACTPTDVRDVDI

SMILES	remaining activity at 10 µM (CDK4/D1) [%]	remaining activity at 10 µM (CDK6/D3) [%]	Ki (CDK9/T1) [µM]	Ki (CDKs and other kinases [1]) [µM]	Ki (CDKs and other kinases [2]) [µM]	Ki (CDKs and other kinases [3]) [µM]	GI50 (leukemia cell lines) [µM]	remaining activity at 10 µM (CDKs and other kinases [1]) [%]	remaining activity at 10 µM (CDKs and other kinases [2]) [%]	remaining activity at 10 µM (CDKs and other kinases [3]) [%]	residual activity at 10 µM (CDK4/D1) [%]	residual activity at 10 µM (CDKs and other kinases [2]) [%]	Ki (CDK4/D1; read-out: CDK inhibition, Ki (μM) CDK4D1) [µM]
N[C@H]1CC[C@H](Nc2ncc(F)c(-c3cnc4ccc(-c5ccccc5)cn34)n2)CC1 [Compound 5, (1r,4r)-N^1-(5-Fluoro-4-(6-phenylimidazo[1,2-a]pyridin-3-yl)pyrimidin-2-yl)cyclohexane-1,4-diamine]	0	16	0.002	0.014	0.006	0.075	0.003 ± 0.001	–	–	–	–	–	–
N[C@H]1CC[C@H](Nc2ncc(F)c(-c3cnc4ccc(-c5ccc(C(=O)N6CCNCC6)cc5)cn34)n2)CC1 [Compound 117, (4-(3-(2-(((1r,4r)-4-Aminocyclohexyl)amino)-5-fluoropyrimidin-4-yl)imidazo[1,2-a]pyridin-6-yl)phenyl) (piperazin-1-yl)methanone]	0	12	0.004	–	–	–	0.045 ± 0.004	10	4	5	–	–	–
N[C@H]1CC[C@H](Nc2ncc(Cl)c(-c3cnc4c(Br)cc(C(F)(F)F)cn34)n2)CC1 [Compound 14, (1r,4r)-N^1-(4-(8-Bromo-6-(trifluoromethyl)imidazo[1,2-a]pyridin-3-yl)-5-chloropyrimidin-2-yl)cyclohexane-1,4-diamine]	3	17	0.007	0.755	0.115	0.04	0.368 ± 0.129	–	–	–	–	–	–
Cc1cnc(N[C@H]2CC[C@H](N)CC2)nc1-c1cnc2ccc(C(F)(F)F)cn12 [Compound 9, (1r,4r)-N^1-(5-Methyl-4-(6-(trifluoromethyl)imidazo[1,2-a]pyridin-3-yl)pyrimidin-2-yl)cyclohexane-1,4-diamine]	45	58	0.009	0.266	0.08	0.23	0.008 ± 0.002	–	–	–	–	–	–
Cc1cnc(N[C@H]2CC[C@H](N)CC2)nc1-c1cnc2ccc(Nc3cccnn3)cn12 [Compound 71, (1r,4r)-N^1-(5-Methyl-4-(6-(pyridazin-3-ylamino)imidazo [1,2-a]pyridin-3-yl)pyrimidin-2-yl)cyclohexane-1,4-diamine]	35	66	0.203	6.05	2.66	5.19	0.383 ± 0.119	–	–	–	–	–	–
N[C@H]1CC[C@H](Nc2ncc(F)c(-c3cnc4ccc(NC(=O)c5ccc(F)cc5)cn34)n2)CC1 [Compound 51, N-(3-(2-(((1r,4r)-4-Aminocyclohexyl)amino)-5-fluoropyrimidin-4-yl)imidazo[1,2-a]pyridin-6-yl)-4-fluorobenzamide]	0	22	0.006	–	–	–	0.001	4	4	6	–	–	–
Cc1cnc(N[C@H]2CC[C@H](N)CC2)nc1-c1cnc2ccc(Nc3ccccc3)cn12 [Compound 31, (1r,4r)-N^1-(5-Methyl-4-(6-(phenylamino)imidazo[1,2-a]pyridin-3-yl)pyrimidin-2-yl)cyclohexane-1,4-diamine]	–	11	0.018	–	–	–	0.005 ± 0.002	32	–	13	45	145	–
N[C@H]1CC[C@H](Nc2ncc(F)c(-c3cnc4ccccn34)n2)CC1 [Compound 1, (1r,4r)-N^1-(5-Fluoro-4-(imidazo[1,2-a]pyridin-3-yl)pyrimidin-2-yl)cyclohexane-1,4-diamine]	–	23	0.006	0.077	0.018	0.026	0.046 ± 0.005	–	–	–	–	–	0.025
